In ChEMBL document CHEMBL5338768, “Discovery of PMSA Derivative 11 as a Novel Lead Compound for Therapeutic Treatment of Osteoporosis In Vitro and In Vivo” (J Med Chem, 2023):
Each block holds one compound with its values, some of them ahead of it. Activity calls are given as the source filed them. The calls are words filed in the database; no cut-off is given here.

How the values were obtained:
Osteoclast [1] = test: Anti-osteoclastogenesis in RANKL induced C57/BL6 mouse osteoclast assessed as formation of mature osteoclast measured at 1 uM by TRAP-staining based microscopic analysis relative to control; type: functional
Mus musculus = test: Anti-osteoporosis activity in OVX induced osteoporosis C57BL/6 mouse model assessed as prevention of bone loss in femur at 20 mg/kg, ip daily for 4 weeks by micro computed tomographic analysis; type: functional, organism-based
BMDM [2] = test: Anti-osteoclastogenesis in RANKL/M-CSF induced C57/BL6 mouse osteogenic differentiated BMDM assessed as repression of F-actin ring at 10 uM spectra max i3x fluorescence plate reader based microscopic analysis; type: functional, cell-based
BMDM [3] = test: Anti-osteoclastogenesis in RANKL/M-CSF induced C57/BL6 mouse osteogenic differentiated BMDM assessed as decrease in pit area at 10 uM for 6 days by measuring fluorescence intensity using fluorescein amine labelled calcium plate method; type: functional, cell-based; conditions: time 6.0 day
BMDM [4] = test: Anti-osteoclastogenesis in RANKL/M-CSF induced C57/BL6 mouse osteogenic differentiated BMDM assessed as suppression of mRNA level of osteoclastogenesis related Nfatc1 gene expression measured for 0 to 4 days by qRT-PCR analysis; type: functional, cell-based; conditions: time 0-4 day
BMDM [5] = test: Anti-osteoclastogenesis in RANKL induced C57/BL6 mouse osteogenic differentiated BMDM assessed as inhibition of NFATc1 protein expression measured at 1 uM for 0 to 4 days by Western blotting analysis; type: functional, cell-based; conditions: time 0-4 day
BMDM [6] = test: Anti-osteoclastogenesis in RANKL/M-CSF induced C57/BL6 mouse osteogenic differentiated BMDM assessed as expression of GAPDH in NAFTc1 translocation by immunofluorescence microscopy; type: functional, cell-based
Osteoclast [7] = test: Anti-osteoclastogenesis in human RANKL/human M-CSF induced human iPSC-derived macrophage assessed as inhibition of mature osteoclast differentiation measured for 10 days by TRAP staining assay; type: functional, cell-based; conditions: time 10.0 day
Calvarial osteoblast = test: Effect on osteogenesis in BMP2 stimulated mouse osteogenic differentiated calvaria primary osteoblast assessed as chane in percentage of ALP positive density at 0.125 to 16 uM with replacement of compound containing media daily for 9 days by ALP staining analysis; type: functional, cell-based; conditions: dose 0.125-16 µM, time 9.0 day
Osteoclast [8] = test: Anti-osteoclastogenesis in RANKL induced C57/BL6 mouse osteoclast assessed as blocking of formation of multinucleated mature osteoclast incubated for 48 hrs; type: functional, cell-based; conditions: dose 62.5-4000 nM
BMDM [9] = test: Anti-osteoclastogenesis in RANKL/M-CSF induced C57/BL6 mouse osteogenic differentiated BMDM assessed as expression of calcineurin A in NAFTc1 translocation by immunofluorescence microscopy; type: functional, cell-based
BMDM [10] = test: Anti-osteoclastogenesis in RANKL/M-CSF induced C57/BL6 mouse osteogenic differentiated BMDM assessed as suppression of mRNA level of osteoclastogenesis related Mmp9 gene expression measured for 0 to 4 days by qRT-PCR analysis; type: functional, cell-based; conditions: time 0-4 day
BMDM [11] = test: Anti-osteoclastogenesis in RANKL induced C57/BL6 mouse osteogenic differentiated BMDM assessed as decreased NAFTc1 protein level in nucleus measured for 48 hrs by Western blotting analysis; type: functional, cell-based
BMDM [12] = test: Cytotoxicity in RANKL induced C57/BL6 mouse BMDM incubated at <4 uM for 48 hrs; type: functional, cell-based
[13] = target: T1, Nuclear factor of activated T-cells, cytoplasmic 1 (Mus musculus) (UniProt O88942); test: Inhibition of pronase mediated NFATc1 degradation in mouse osteogenic differentiated BMDM multi nuclear mature osteoclast at 50 uM for 1 hr by drug affinity responsive target stability analysis; type: cell-based
T1 sequence (whole entry): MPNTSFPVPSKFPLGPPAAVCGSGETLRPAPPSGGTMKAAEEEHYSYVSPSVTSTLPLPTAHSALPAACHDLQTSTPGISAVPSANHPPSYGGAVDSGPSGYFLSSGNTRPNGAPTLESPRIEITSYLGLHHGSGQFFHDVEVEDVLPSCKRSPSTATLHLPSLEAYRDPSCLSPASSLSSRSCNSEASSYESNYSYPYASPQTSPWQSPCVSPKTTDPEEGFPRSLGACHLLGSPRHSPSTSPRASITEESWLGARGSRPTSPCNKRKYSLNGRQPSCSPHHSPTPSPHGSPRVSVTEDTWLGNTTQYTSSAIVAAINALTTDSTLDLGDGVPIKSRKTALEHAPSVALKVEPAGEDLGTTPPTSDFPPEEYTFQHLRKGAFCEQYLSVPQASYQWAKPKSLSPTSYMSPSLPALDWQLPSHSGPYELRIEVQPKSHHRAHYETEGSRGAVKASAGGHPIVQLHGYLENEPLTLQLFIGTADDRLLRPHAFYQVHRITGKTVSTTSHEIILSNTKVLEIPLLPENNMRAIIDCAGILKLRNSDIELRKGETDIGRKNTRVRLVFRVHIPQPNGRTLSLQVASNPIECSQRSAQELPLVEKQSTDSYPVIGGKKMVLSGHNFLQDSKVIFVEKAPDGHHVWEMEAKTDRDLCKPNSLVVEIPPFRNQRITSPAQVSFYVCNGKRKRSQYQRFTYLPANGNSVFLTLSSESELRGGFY

BMDM [14] = test: Anti-osteoclastogenesis in RANKL/M-CSF induced C57/BL6 mouse osteogenic differentiated BMDM assessed as expression of GSK3beta in NAFTc1 translocation by immunofluorescence microscopy; type: functional, cell-based
Osteoclast [15] = test: Anti-osteoclastogenesis in RANKL induced C57/BL6 mouse osteoclast assessed as inhibition of differentiation of bone marrow derived macrophage measured by TRAP-staining based microscopic analysis; type: functional, cell-based
BMDM [16] = test: Anti-osteoclastogenesis in RANKL/M-CSF induced C57/BL6 mouse osteogenic differentiated BMDM assessed as decrease in pit area at 0.5 to 2 uM for 6 days by measuring fluorescence intensity using fluorescein amine labelled calcium plate method; type: functional, cell-based; conditions: dose 0.5-2 µM, time 6.0 day
BMDM [17] = test: Anti-osteoclastogenesis in RANKL induced C57/BL6 mouse osteogenic differentiated BMDM assessed as inhibition of c-fos protein expression measured at 1 uM for 0 to 4 days by Western blotting analysis; type: functional, cell-based; conditions: time 0-4 day
BMDM [18] = test: Anti-osteoclastogenesis in RANKL induced C57/BL6 mouse osteogenic differentiated BMDM assessed as inhibition of c-src protein expression measured at 1 uM for 0 to 4 days by Western blotting analysis; type: functional, cell-based; conditions: time 0-4 day
BMDM [19] = test: Anti-osteoclastogenesis in RANKL/M-CSF induced C57/BL6 mouse osteogenic differentiated BMDM assessed as suppression of mRNA level of osteoclastogenesis related Atp6v0d2 gene expression measured for 0 to 4 days by qRT-PCR analysis; type: functional, cell-based; conditions: time 0-4 day
BMDM [20] = test: Anti-osteoclastogenesis in RANKL induced C57/BL6 mouse osteogenic differentiated BMDM assessed as inhibition of TRAF6 protein expression measured at 1 uM for 0 to 4 days by Western blotting analysis; type: functional, cell-based; conditions: time 0-4 day
BMDM [21] = test: Anti-osteoclastogenesis in RANKL induced C57/BL6 mouse osteogenic differentiated BMDM assessed as inhibition of N-FkappaB protein expression measured at 1 uM for 0 to 4 days by Western blotting analysis; type: functional, cell-based; conditions: time 0-4 day
[22] = Toxicity in OVX induced osteoporosis C57BL/6 mouse model assessed as reduction of body weight at 20 mg/kg, ip daily for 4 weeks measured every week; type: organism-based; conditions: in vivo, 672 h
BMDM [23] = test: Anti-osteoclastogenesis in RANKL/M-CSF induced C57/BL6 mouse osteogenic differentiated BMDM assessed as suppression of mRNA level of osteoclastogenesis related Acp5 gene expression measured for 0 to 4 days by qRT-PCR analysis; type: functional, cell-based; conditions: time 0-4 day
BMDM [24] = test: Anti-osteoclastogenesis in RANKL/M-CSF induced C57/BL6 mouse osteogenic differentiated BMDM assessed as repression of F-actin ring at 500 to 2000 nM spectra max i3x fluorescence plate reader based microscopic analysis; type: functional, cell-based; conditions: dose 500-2000 nM
BMDM [25] = test: Anti-osteoclastogenesis in RANKL/M-CSF induced C57/BL6 mouse osteogenic differentiated BMDM assessed as suppression of mRNA level of osteoclastogenesis related Dc-stamp gene expression measured for 0 to 4 days by qRT-PCR analysis; type: functional, cell-based; conditions: time 0-4 day
BMDM [26] = test: Anti-osteoclastogenesis in RANKL/M-CSF induced C57/BL6 mouse osteogenic differentiated BMDM assessed as expression of CRM1 in NAFTc1 translocation by immunofluorescence microscopy; type: functional, cell-based
BMDM [27] = test: Cytotoxicity in RANKL induced C57/BL6 mouse mouse osteogenic differentiated BMDM assessed as blocking of formation of multinucleated mature osteoclast incubated at 4 uM for 48 hrs; type: functional, cell-based
BMDM [28] = test: Anti-osteoclastogenesis in RANKL induced C57/BL6 mouse osteogenic differentiated BMDM assessed as inhibition of protease Ctsk-protein expression measured at 1 uM for 0 to 4 days by Western blotting analysis; type: functional, cell-based; conditions: time 0-4 day
BMDM [29] = test: Anti-osteoclastogenesis in RANKL induced C57/BL6 mouse osteogenic differentiated BMDM assessed as increased NAFTc1 protein level in cytoplasm measured for 48 hrs by Western blotting analysis; type: functional, cell-based
BMDM [30] = test: Anti-osteoclastogenesis in RANKL/M-CSF induced C57/BL6 mouse osteogenic differentiated BMDM assessed as suppression of mRNA level of osteoclastogenesis related Ctsk-gene expression measured for 0 to 4 days by qRT-PCR analysis; type: functional, cell-based; conditions: time 0-4 day

SMILES: CS(=O)(=O)N(CC(=O)Nc1ccccc1Sc1ccccc1)c1cccc(C(=O)Oc2ccc(Cl)cc2)c1
- inhibition at 1 µM (Osteoclast [1]): 23.9%

SMILES: NCCCC(O)(P(=O)(O)O)P(=O)(O)O [ALENDRONIC ACID]
- inhibition at 1 µM (Osteoclast [1]): 30.9%

SMILES: Cc1ccc(OC(=O)c2cccc(N(CC(=O)Nc3ccccc3Sc3ccccc3)S(C)(=O)=O)c2)cc1
- inhibition at 1 µM (Osteoclast [1]): 14.2%

SMILES: Cc1ccccc1OC(=O)c1cccc(N(CC(=O)Nc2ccccc2Sc2ccccc2)S(C)(=O)=O)c1
- inhibition at 1 µM (Osteoclast [1]): 15.3%

SMILES: CS(=O)(=O)N(CC(=O)Nc1ccccc1Sc1ccccc1)c1cccc(C(=O)O)c1
- inhibition at 1 µM (Osteoclast [1]): 0.11%

SMILES: COc1ccc(OC(=O)c2cccc(N(CC(=O)Nc3ccccc3Sc3ccccc3)S(C)(=O)=O)c2)cc1
- inhibition at 1 µM (Osteoclast [1]): 25.7%

SMILES: CS(=O)(=O)N(CC(=O)Nc1ccccc1Sc1ccccc1)c1cccc(C(=O)Oc2cccc([N+](=O)[O-])c2)c1
- inhibition at 1 µM (Osteoclast [1]): 4.74%

SMILES: CS(=O)(=O)N(CC(=O)Nc1ccccc1Sc1ccccc1)c1cccc(C(=O)Oc2ccc([N+](=O)[O-])cc2)c1
- inhibition at 1 µM (Osteoclast [1]): 15.3%

SMILES: Cc1cccc(OC(=O)c2cccc(N(CC(=O)Nc3ccccc3Sc3ccccc3)S(C)(=O)=O)c2)c1
- inhibition at 1 µM (Osteoclast [1]): 19%

SMILES: CC(C)(C)c1ccc(OC(=O)c2cccc(N(CC(=O)Nc3ccccc3Sc3ccccc3)S(C)(=O)=O)c2)cc1
- inhibition at 1 µM (Osteoclast [1]): 4.07%

SMILES: O=C(CNc1cccc(C(=O)Oc2ccc(Cl)cc2)c1)Nc1ccccc1Sc1ccccc1
- inhibition at 1 µM (Osteoclast [1]): 43.2%

SMILES: CC(=O)c1cccc(N(CC(=O)Nc2ccccc2Sc2ccccc2)S(C)(=O)=O)c1
- inhibition at 1 µM (Osteoclast [1]): 6.09%
- Activity (Mus musculus): inactive
- Activity (BMDM [2]): Active
- Activity (BMDM [3]): Active

SMILES: COc1ccc(OC(=O)c2cccc(NCC(=O)Nc3ccccc3Sc3ccccc3)c2)cc1
- inhibition at 1 µM (Osteoclast [1]): 50.9%

SMILES: CS(=O)(=O)N(CC(=O)Nc1ccccc1Sc1ccccc1)c1cccc(C(=O)Oc2ccc3ccccc3c2)c1
- inhibition at 1 µM (Osteoclast [1]): 11.3%

SMILES: CS(=O)(=O)N(CC(=O)Nc1ccccc1Sc1ccccc1)c1cccc(C(=O)Oc2ccccc2C#N)c1
- inhibition at 1 µM (Osteoclast [1]): 11.1%

SMILES: COc1ccccc1OC(=O)c1cccc(N(CC(=O)Nc2ccccc2Sc2ccccc2)S(C)(=O)=O)c1
- inhibition at 1 µM (Osteoclast [1]): 20.3%

SMILES: CS(=O)(=O)N(CC(=O)Nc1ccccc1Sc1ccccc1)c1cccc(Cl)c1
- inhibition at 1 µM (Osteoclast [1]): 16.2%

SMILES: COC(=O)c1cccc(N(CC(=O)Nc2ccccc2Sc2ccccc2)S(C)(=O)=O)c1
- inhibition at 1 µM (Osteoclast [1]): 8.13%

SMILES: CS(=O)(=O)N(CC(=O)Nc1ccccc1Sc1ccccc1)c1cccc(C(=O)Oc2cccc3ccccc23)c1
- inhibition at 1 µM (Osteoclast [1]): 9.03%

- inhibition [13]: Active
SMILES: COC(=O)c1cccc(NCC(=O)Nc2ccccc2Sc2ccccc2)c1
- Activity (BMDM [4]): Active
- Activity (BMDM [5]): inactive
- Activity (BMDM [6]): inactive
- Activity (Osteoclast [7]): Active
- inhibition at 1 µM (Osteoclast [1]): 74.5%
- Activity (Calvarial osteoblast): inactive
- Activity (Osteoclast [8]): Dose-Dependent Effect
- Activity (BMDM [9]): inactive
- Activity (BMDM [10]): Active
- Activity (BMDM [11]): Active
- Activity (Mus musculus): Active
- Activity (BMDM [12]): inactive
- Activity (BMDM [14]): inactive
- IC50 (Osteoclast [15]): 323 nM
- Activity (BMDM [16]): Dose-Dependent Effect
- Activity (BMDM [17]): inactive
- Activity (BMDM [18]): inactive
- Activity (BMDM [19]): Active
- Activity (BMDM [20]): inactive
- Activity (BMDM [21]): inactive
- Activity [22]: Non-Toxic
- Activity (BMDM [23]): Active
- Activity (BMDM [24]): Active
- Activity (BMDM [25]): Active
- Activity (BMDM [26]): inactive
- Activity (BMDM [27]): Active
- Activity (BMDM [28]): Active
- Activity (BMDM [29]): Active
- Activity (BMDM [30]): Active

SMILES: COc1ccccc1OC(=O)c1cccc(NCC(=O)Nc2ccccc2Sc2ccccc2)c1
- inhibition at 1 µM (Osteoclast [1]): 52.3%
